One test deals with AMPKa [pT172]. The test can be described thus: AMPKa activation [pT172] in MCF7 cell. It counts as cell-based.
The test system of a further test is A549 cell line. Briefly: Oxygen consumption rate (OCR) and extracellular acidification rate (ECAR) in A549 cells. It counts as cell-based. The following applies: Homo sapiens, A549, 3 hrs, control group set at 0%, phenformin set at 100%. How it is done: A549 cell line (purchased from ATCC-American Type Culture Collection (ATCC)), a lung cancer cell line, is treated with the compounds and OCR and ECAR of the cells are measured and thereby those compounds which show an improved effect compared to phenformin are selected.
The cells are plated on an XF96 cell culture plate containing RPMI1640 medium at a concentration of 5×10^3 cells and cultured in 37° C., 5% CO2 conditions to allow them to be attached thereto.
After 24 hours, the cells are treated with the drug at a concentration of 10 μM for 2 hours, the existing medium is washed with a medium for XF analysis (15 mM D-glucose, 15 mM sodium pyruvate, 4 mM L-glutamine, pH 7.4) to remove the medium using a Prep station and treated again with the drugs, and cultured in 37° C., non-CO2 conditions in the Prep station for 1 hour. While culturing in the Prep station, a sensor cartridge is calibrated for 1 hour and added into a plate containing cells, and OCR and ECAR analyses are performed.
The measured values of OCR and ECAR of the compounds are calculated with reference to the measured values of OCR and ECAR of the control group which is set at 0% and the values of OCR and ECAR of phenformin, which was used as the reference drug, set at 100%, and those compounds which show an improved effect compared to those of phenformin are selected.
From the primarily-selected compounds, those compounds which show an improved effect are treated at various concentrations (0 μM, 0.5 μM, 1 μM, 5 μM, 10 μM, and 20 μM) and their reactivity according to concentration was obtained.

For a further test, the system named is HCT116 cells. The test can be described thus: Inhibitory effect against cancer cell proliferation (MTT). It counts as cell-based, human. As to conditions: Homo sapiens, HCT-116; HCT116, MTT, 48 hours; read-out: IC50 (uM) @ HCT116. How it is done:
The formazane crystals thus formed were dissolved using dimethyl sulfoxide (DMSO) and absorbance of the solution was measured at 560 nm. After culturing for 48 hours, […] synthesized in Examples was indicated as cell viability (%) according to each treated concentration.

The results in this text go back to patent publication US11572341B2, “Biguanide compound and use thereof” (ImmunoMet Therapeutics Inc., priority 2014, dated 2023).

Structures can show the parent of a compound that is named as a salt. Where two headings read alike, the source gives them in different places.

What is called IC50 is the concentration needed to halve the response being measured.

On to `CC(C)NC(=N)NC(=N)NCc1cccnc1.Cl` [Example 6, N1-isopropyl-N5-1-(pyridin-3-yl)methyl Biguanide Hydrochloride], for which, in the test on AMPKa [pT172] (50 uM), the “AMPKa activation [pT172] (Unit/ml) @ MCF7 cell” value (“AMPKa activation [pT172]” below) is recorded as 4.8 Unit/ml. Further, the Emax at 10 µM in the test with A549 cell line (read-out: ECAR (A549, 3 hrs)) is 9.3%; with A549 cell line (read-out: OCR (A549, 3 hrs)), 16.7%.

As to `Cl.N=C(NCCc1ccc(Cl)cc1)NC(=N)N1CCCCC1` [Example 13, N1-piperidin-N5-4-chloro)phenethyl Biguanide Hydrochloride], in the test on HCT116 cells, the IC50 was above 100 µM. Besides, the Emax at 10 µM was 61% in the test with A549 cell line (read-out: ECAR (A549, 3 hrs)) and -20% in the test with A549 cell line (read-out: OCR (A549, 3 hrs)).

In the case of `Cl.N=C(NCCc1ccccc1Cl)NC(=N)N1CCCCC1` [Example 14, N1-piperidin-N5-2-chloro)phenethyl Biguanide Hydrochloride], in the test on HCT116 cells, the IC50 was above 100 µM. The Emax at 10 µM in the test on A549 cell line (read-out: ECAR (A549, 3 hrs)) is 63%; with A549 cell line (read-out: OCR (A549, 3 hrs)), -7%.

Take `N=C(NC(=N)N1CCCC1)Nc1c(F)cccc1F` [Example 80, N1-pyrrolidin-N5-(2,6-difluoro)phenyl Biguanide Hydrochloride]: the Emax at 10 µM in the test with A549 cell line (read-out: ECAR (A549, 3 hrs)) was found to be 1%; in the test on A549 cell line (read-out: OCR (A549, 3 hrs)) it was 3%.

As to `CN(C(=N)NC(=N)N1CCCC1)c1ccc(OC(F)(F)F)cc1` [Example 82, N1-pyrrolidin-N5-methyl-N5-(4-trifluoromethoxy)phenyl Biguanide Hydrochloride], the Emax at 10 µM in the test on A549 cell line (read-out: ECAR (A549, 3 hrs)) was found to be 6.9%; in the test on A549 cell line (read-out: OCR (A549, 3 hrs)), 7.7%.

Take `CN(C)C(=N)NC(=N)N(C)c1ccc(OC(F)(F)F)cc1` [Example 85, N1,N1-dimethyl-N5-methyl-N5-(4-trifluoromethoxy)phenyl Biguanide Hydrochloride]: the Emax at 10 µM is 31% in the test on A549 cell line (read-out: ECAR (A549, 3 hrs)) and -6% in the test with A549 cell line (read-out: OCR (A549, 3 hrs)).

For the compound `N=C(N)N/C(=N/CCc1ccccc1)NCCc1cccs1` [Example 103, N1 (2-thiophen-2-yl)ethyl-N2-phenethyl Biguanide Hydrochloride], the Emax at 10 µM in the test on A549 cell line (read-out: ECAR (A549, 3 hrs)) is -43%; in the test on A549 cell line (read-out: OCR (A549, 3 hrs)), 36%.

As to `N=C(N)N/C(=N/CCc1ccc2c(c1)OCO2)NCCc1cccs1` [Example 104, N1-2-thiophen-2-)ethyl-N2-2-benzo[d][1,3]dioxol-5-yl)ethyl Biguanide Hydrochloride], the Emax at 10 µM is -8.3% in the test on A549 cell line (read-out: ECAR (A549, 3 hrs)) and 31.3% with A549 cell line (read-out: OCR (A549, 3 hrs)).

As to `C/N=C(/NC(=N)N1CCCC1)Nc1ccc(OC(F)(F)F)cc1` [Example 105, N1-(4-trifluoromethoxy)phenyl-N2-methyl-N5-pyrrolidine Biguanide Hydrochloride], the Emax at 10 µM in the test on A549 cell line (read-out: ECAR (A549, 3 hrs)) is -25.5%; in the test on A549 cell line (read-out: OCR (A549, 3 hrs)), 25.1%.

In the case of `C/N=C(/NC(=N)N1CCCC1)N(C)c1ccc(OC(F)(F)F)cc1` [Example 106, N1-methyl-N1-(4-trifluoromethoxy)phenyl-N2-methyl-N5-pyrrolidine Biguanide Hydrochloride], the Emax at 10 µM in the test with A549 cell line (read-out: ECAR (A549, 3 hrs)) is -7.5%; with A549 cell line (read-out: OCR (A549, 3 hrs)), -6.6%.

Consider `N=C(N)N/C(=N/C1CCCC1)NCc1ccc2c(c1)OCO2` [Example 107, N1-(benzo[d][1,3]dioxol-5-yl)methyl-N2-cyclopentyl Biguanide Hydrochloride], for which the Emax at 10 µM in the test on A549 cell line (read-out: ECAR (A549, 3 hrs)) is -8.9%; in the test with A549 cell line (read-out: OCR (A549, 3 hrs)), -4.4%.

Turning to `Cl.N=C(N)NC(=N)Nc1ccccc1` [Example 113, N1-phenyl Biguanide Hydrochloride], in the test with HCT116 cells, the IC50 was determined as 72.7 µM. The entries for the “AMPKa activation [pT172]” value with AMPKa [pT172] (5 uM), in the test with AMPKa [pT172] (10 uM) and in the test on AMPKa [pT172] (50 uM) were 9.9 Unit/ml, 10.1 Unit/ml and 28.6 Unit/ml, respectively. For the same compound, the Emax at 10 µM with A549 cell line (read-out: ECAR (A549, 3 hrs)) was -24%; in the test with A549 cell line (read-out: OCR (A549, 3 hrs)), -3%.

As to `N=C(N)NC(=N)Nc1ccc(Br)cc1` [Example 116, N1-(4-bromo)phenyl Biguanide Hydrochloride], the IC50 with HCT116 cells came out at 101 µM. Further, in the test on AMPKa [pT172] (50 uM), the “AMPKa activation [pT172]” value worked out at 25.9 Unit/ml. In addition, the Emax at 10 µM is -24% in the test with A549 cell line (read-out: ECAR (A549, 3 hrs)) and 0% in the test with A549 cell line (read-out: OCR (A549, 3 hrs)).

Regarding `Cl.N=C(N)NC(=N)Nc1ccc(N2CCOCC2)cc1` [Example 122, N1-(4-morpholin-4-yl)phenyl Biguanide Hydrochloride], in the test on HCT116 cells, the concentration for half-maximal inhibition (IC50) was above 100 µM. Moreover, in the test with AMPKa [pT172] (50 uM), the “AMPKa activation [pT172]” value is recorded as 5.9 Unit/ml. The Emax at 10 µM in the test on A549 cell line (read-out: ECAR (A549, 3 hrs)) is 15.5%; with A549 cell line (read-out: OCR (A549, 3 hrs)), 13.3%.

For `Cl.N=C(N)NC(=N)N1CCN(c2ccccn2)CC1` [Example 127, N1-4-(pyridin-2-yl)piperazine Biguanide Hydrochloride], in the test with HCT116 cells, the IC50 is above 100 µM. The “AMPKa activation [pT172]” value in the test with AMPKa [pT172] (50 uM) was 5.8 Unit/ml. For the same compound, the Emax at 10 µM worked out at 7% with A549 cell line (read-out: ECAR (A549, 3 hrs)) and 10.2% in the test with A549 cell line (read-out: OCR (A549, 3 hrs)).

`Cl.N=C(N)NC(=N)NCc1ccc(F)cc1` [Example 132, N1-(4-fluoro)benzyl Biguanide Hydrochloride]: the 50% inhibitory concentration (IC50) with HCT116 cells is above 100 µM. Besides, the results for the “AMPKa activation [pT172]” value with AMPKa [pT172] (5 uM) and with AMPKa [pT172] (50 uM) were 6.1 Unit/ml and 8.1 Unit/ml, respectively. The Emax at 10 µM with A549 cell line (read-out: ECAR (A549, 3 hrs)) worked out at 44.7%; with A549 cell line (read-out: OCR (A549, 3 hrs)), 39.3%.

On to `N=C(N)NC(=N)NCc1ccco1` [Example 144, N1-(furan-2-yl)methyl Biguanide Hydrochloride], for which the Emax at 10 µM came to 7% in the test with A549 cell line (read-out: ECAR (A549, 3 hrs)) and 47% in the test on A549 cell line (read-out: OCR (A549, 3 hrs)).

Regarding `N=C(N)NC(=N)NCc1ccc(O)cc1F` [Example 146, N1-(2-fluoro-4-hydroxy)benzyl Biguanide Hydrochloride], the Emax at 10 µM worked out at 28% in the test with A549 cell line (read-out: ECAR (A549, 3 hrs)) and 109% in the test with A549 cell line (read-out: OCR (A549, 3 hrs)).

For the compound `N=C(N)NC(=N)NCCCc1ccc(F)cc1` [Example 147, N1-(4-fluoro)phenylpropyl Biguanide Hydrochloride], the Emax at 10 µM turned out to be 126% in the test on A549 cell line (read-out: ECAR (A549, 3 hrs)) and 74% in the test with A549 cell line (read-out: OCR (A549, 3 hrs)).

On to `COc1ccc(CCCNC(=N)NC(=N)N)cc1` [Example 148, N1-(4-methoxy)phenylpropyl Biguanide Hydrochloride], for which the Emax at 10 µM was determined as 160% in the test with A549 cell line (read-out: ECAR (A549, 3 hrs)) and 1% with A549 cell line (read-out: OCR (A549, 3 hrs)).

Consider `N=C(N)NC(=N)NCc1ccccc1I` [Example 149, N1-(2-iodo)benzyl Biguanide Hydrochloride], for which the Emax at 10 µM was 36% with A549 cell line (read-out: ECAR (A549, 3 hrs)) and 20% in the test with A549 cell line (read-out: OCR (A549, 3 hrs)).

On to `N=C(N)NC(=N)NCc1cccc(I)c1` [Example 150, N1-(3-iodo)benzyl Biguanide Hydrochloride], for which the Emax at 10 µM in the test on A549 cell line (read-out: ECAR (A549, 3 hrs)) amounted to 125%; in the test on A549 cell line (read-out: OCR (A549, 3 hrs)) it was 105%.

With `CC1CC(=O)N=C(NC(=N)N)N1.Cl` (centres unmarked) [Example 164, Hydrochloride], the Emax at 10 µM in the test with A549 cell line (read-out: ECAR (A549, 3 hrs)) is 9%; in the test with A549 cell line (read-out: OCR (A549, 3 hrs)) it was -1%.
